According to patent US20090325964A1, “Piperazine Metabotropic Glutamate Receptor 5 (MGLUR5) Negative Allosteric Modulators For Anxiety/Depression” (Wyeth, priority 2008, published 2009):
Where two headings read alike, the source gives them in different places.

Target: T1, rat mGluR5 receptor (Rattus norvegicus, UniProt P31424)
T1 construct: expressed in transfected cells; host or cells: HEK-293
Experiment: [3H]-MPEP displacement binding assay, HEK-293 cell membranes expressing rat mGluR5
Details: for Ki: read-out: Median Ki; for inhibition at 10 µM: 1 h, single point, @ 10 μm compound, Table 1A, read-out: PCT INHIB (%) @ 10 μm
Description: MGluR5 expressing HEK-293 cells were scraped off a plate, transferred to centrifuge tubes and washed twice by centrifugation (2000 rpm for 10 minutes, at 4° C.) in buffer (50 mM Tris pH 7.5). The resulting pellets were aliquoted and stored at minus 80° C. On the day of assay, the cells were thawed on ice and re-suspended in buffer. The binding assay was performed in a 96 well microtiter plate in a total volume of […]. Non-specific binding was determined in the presence of 10 μM MPEP. The binding reaction included a final radioligand [^3H]-MPEP concentration of 4 nM and 12-25 μg membrane protein per well. Following a 60 minute incubation at room temperature, the reaction was terminated by the addition of ice cold buffer and rapid filtration through a GF/B filter that had been presoaked for 30 minutes in 0.5% PEI. Compounds were initially tested in a single point assay to determine percent inhibition at 10 μM.
Percent inhibition and Ki values were generated by GraphPad Prism and Excel Fit. IC50 values were calculated using GraphPad by fitting to a 1 or 2 site-binding model.
where [L] is the concentration of free radioligand and Kd is the dissociation constant of radioligand for the receptor.

[1] = [3H]-MPEP displacement, rat mGluR5

T1 sequence (P31424 21-1203): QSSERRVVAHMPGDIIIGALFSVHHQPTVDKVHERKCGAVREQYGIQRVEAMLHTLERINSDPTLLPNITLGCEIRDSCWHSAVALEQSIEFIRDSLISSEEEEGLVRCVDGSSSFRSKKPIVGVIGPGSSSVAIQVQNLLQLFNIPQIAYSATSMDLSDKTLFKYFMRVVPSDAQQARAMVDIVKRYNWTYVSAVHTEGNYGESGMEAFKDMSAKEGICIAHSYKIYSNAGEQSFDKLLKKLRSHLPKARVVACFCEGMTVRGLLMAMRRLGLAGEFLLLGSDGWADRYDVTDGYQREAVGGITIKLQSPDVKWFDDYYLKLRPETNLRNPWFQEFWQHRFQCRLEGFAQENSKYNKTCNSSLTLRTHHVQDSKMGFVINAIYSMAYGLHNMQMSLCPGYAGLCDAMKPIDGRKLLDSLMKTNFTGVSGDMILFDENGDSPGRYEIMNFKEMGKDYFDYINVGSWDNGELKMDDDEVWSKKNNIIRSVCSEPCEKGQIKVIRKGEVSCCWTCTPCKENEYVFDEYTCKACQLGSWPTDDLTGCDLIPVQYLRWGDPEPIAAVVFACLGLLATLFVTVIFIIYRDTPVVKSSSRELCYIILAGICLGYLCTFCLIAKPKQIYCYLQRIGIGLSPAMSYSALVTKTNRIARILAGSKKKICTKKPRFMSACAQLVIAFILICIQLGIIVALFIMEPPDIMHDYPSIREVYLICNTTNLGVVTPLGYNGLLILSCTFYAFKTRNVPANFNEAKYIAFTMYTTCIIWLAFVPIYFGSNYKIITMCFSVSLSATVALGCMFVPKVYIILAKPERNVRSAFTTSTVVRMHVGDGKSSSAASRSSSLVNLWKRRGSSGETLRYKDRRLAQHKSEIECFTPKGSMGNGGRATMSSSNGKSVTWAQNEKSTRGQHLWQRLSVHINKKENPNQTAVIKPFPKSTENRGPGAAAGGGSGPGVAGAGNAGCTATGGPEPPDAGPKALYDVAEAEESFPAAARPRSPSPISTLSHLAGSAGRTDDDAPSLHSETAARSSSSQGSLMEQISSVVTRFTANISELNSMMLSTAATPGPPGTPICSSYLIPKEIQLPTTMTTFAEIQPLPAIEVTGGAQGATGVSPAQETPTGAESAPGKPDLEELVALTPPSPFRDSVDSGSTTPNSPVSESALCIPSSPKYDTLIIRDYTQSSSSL

Row | Molecule | inhibition at 10 µM | also measured
1 | 1-(2-chlorobenzyl)-4-[4-methoxy-3-(pyridin-2-ylethynyl)benzoyl]piperazin-2-one [Compound 332] |  | Ki [1]: 32 nM
2 | 1-(3-chlorobenzyl)-4-[4-methoxy-3-(pyridin-2-ylethynyl)benzoyl]piperazin-2-one [Compound 333] |  | Ki [1]: 34 nM
3 | 1-(3-chloropyridin-2-yl)-4-{4-methoxy-3-[(3-nitrophenyl)ethynyl]benzoyl}piperazine [Compound 345] |  | Ki [1]: 3210 nM
4 | 1-(4-chlorobenzyl)-4-[4-methoxy-3-(pyridin-2-ylethynyl)benzoyl]piperazin-2-one [Compound 334] |  | Ki [1]: 54 nM
5 | 1-(4-methylpyridin-2-yl)-4-{[3-(pyridin-2-ylethynyl)-4-(trifluoromethyl)phenyl]carbonyl}piperazine [Compound 367] |  | Ki ([3H]-MPEP displacement, rat mGluR5 membranes): 8 nM
6 | 2-{4-[4-methoxy-3-(pyridin-2-ylethynyl)benzoyl]piperazin-1-yl}-1,3-benzothiazole [Compound 256] |  | Ki [1]: 43 nM
7 | O=C(c1cccc(C#Cc2ccc(Cl)cc2)c1)N1CCN(c2ccccn2)CC1 [Compound 3, 1-{3-[(4-chlorophenyl)ethynyl]benzoyl}-4-pyridin-2-ylpiperazine] | 45% | 
8 | O=C(c1cccc(C#CC2(O)CCCC2)c1)N1CCN(c2ccccn2)CC1 [Compound 9, 1-({3-[(4-pyridin-2-ylpiperazin-1-yl)carbonyl]phenyl}ethynyl)cyclopentanol] | 0% | 
9 | O=C(c1cccc(C#CC(O)c2ccccc2)c1)N1CCN(c2ccccn2)CC1 (centres unmarked) [Compound 13, 1-phenyl-3-{3-[(4-pyridin-2-ylpiperazin-1-yl)carbonyl]phenyl}prop-2-yn-1-ol] | 15% | 

Second part, led by results:

Row | inhibition at 10 µM | Molecule | also measured
10 | 55% | Cc1ccc(C#Cc2cccc(C(=O)N3CCN(c4ccccn4)CC3)c2)cc1 [Compound 1, 1-{3-[(4-methylphenyl)ethynyl]benzoyl}-4-pyridin-2-ylpiperazine] | 
11 | 0% | Cc1ccccc1C#Cc1cccc(C(=O)N2CCN(c3ccccn3)CC2)c1 [Compound 4, 1-{3-[(2-methylphenyl)ethynyl]benzoyl}-4-pyridin-2-ylpiperazine] | 
12 | 0% | O=C(c1cccc(C#Cc2ccccc2C(F)(F)F)c1)N1CCN(c2ccccn2)CC1 [Compound 5, 1-pyridin-2-yl-4-(3-{[2-(trifluoromethyl)phenyl]ethynyl}benzoyl)piperazine] | 
13 | 75% | O=C(c1cccc(C#Cc2cccc(O)c2)c1)N1CCN(c2ccccn2)CC1 [Compound 6, 3-({3-[(4-pyridin-2-ylpiperazin-1-yl)carbonyl]phenyl}ethynyl)phenol] | Ki: 1120 nM
14 | 0% | Cn1cncc1C#Cc1cccc(C(=O)N2CCN(c3ccccn3)CC2)c1 [Compound 7, 1-{3-[(1-methyl-1H-imidazol-5-yl)ethynyl]benzoyl}-4-pyridin-2-ylpiperazine] | 
15 | 78% | O=C(c1cccc(C#CC2=CCCCC2)c1)N1CCN(c2ccccn2)CC1 [Compound 8, 1-[3-(cyclohex-1-en-1-ylethynyl)benzoyl]-4-pyridin-2-ylpiperazine] | Ki: 1220 nM
16 | 85% | Nc1cccc(C#Cc2cccc(C(=O)N3CCN(c4ccccn4)CC3)c2)c1 [Compound 11, 3-({3-[(4-pyridin-2-ylpiperazin-1-yl)carbonyl]phenyl}ethynyl)aniline] | 
17 | 0% | O=C(c1cccc(C#CC2(O)CCCCC2)c1)N1CCN(c2ccccn2)CC1 [Compound 12, 1-({3-[(4-pyridin-2-ylpiperazin-1-yl)carbonyl]phenyl}ethynyl)cyclohexanol] | 
18 | 76% | COc1ccc(C(=O)N2CCN(c3ccccn3)CC2)cc1C#CC1=CCCCC1 [Compound 15, 1-[3-(cyclohex-1-en-1-ylethynyl)-4-methoxybenzoyl]-4-pyridin-2-ylpiperazine] | Ki: 236 nM
19 | 84% | COc1ccc(C(=O)N2CCN(c3ccccn3)CC2)cc1C#CCc1ccccc1 [Compound 16, 1-[4-methoxy-3-(3-phenylprop-1-yn-1-yl)benzoyl]-4-pyridin-2-ylpiperazine] | Ki: 43 nM
